Laboratory results taken from patent publication US20210115018A1, “PIPERIDINE COMPOUNDS AS COVALENT MENIN INHIBITORS” (THE REGENTS OF THE UNIVERSITY OF MICHIGAN, priority 2018, published 2021).

What was measured:
menin protein = target: T1, menin protein (Homo sapiens, UniProt O00255); assay: Fluorescence polarization (FP) competitive binding assay, menin binding affinity; details: FP competition with FAM-MM2 probe 2 nM, menin 4 nM, 30 minutes room temperature
T1 sequence (O00255 1-610): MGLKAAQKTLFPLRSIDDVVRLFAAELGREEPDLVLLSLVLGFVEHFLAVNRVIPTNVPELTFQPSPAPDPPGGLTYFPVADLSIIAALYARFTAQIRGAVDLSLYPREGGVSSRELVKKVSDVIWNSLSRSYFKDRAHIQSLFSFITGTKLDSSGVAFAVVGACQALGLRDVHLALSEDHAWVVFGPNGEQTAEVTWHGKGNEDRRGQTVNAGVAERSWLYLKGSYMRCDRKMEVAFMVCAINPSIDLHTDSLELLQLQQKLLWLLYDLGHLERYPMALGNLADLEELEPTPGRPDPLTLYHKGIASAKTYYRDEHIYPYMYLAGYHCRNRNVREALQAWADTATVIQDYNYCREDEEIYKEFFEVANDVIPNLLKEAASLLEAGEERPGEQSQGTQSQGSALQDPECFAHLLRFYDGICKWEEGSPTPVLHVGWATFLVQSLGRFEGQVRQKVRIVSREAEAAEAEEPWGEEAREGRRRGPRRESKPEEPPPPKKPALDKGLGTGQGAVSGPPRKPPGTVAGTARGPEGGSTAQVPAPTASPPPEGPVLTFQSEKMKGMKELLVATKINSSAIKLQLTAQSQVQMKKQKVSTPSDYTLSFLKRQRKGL
Procedure, shortened: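 Competitive FP with FAM-labeled MLL1 peptide probe FAM-MM2 (2 nM) and menin (4 nM) in PBS, 0.02% bovine γ-globulin, 4% DMSO, 0.01% Triton X-100. After 30 min at room temperature, mP read at 485/530 nm; IC50 from nonlinear regression against probe-only and complex-only controls.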

MOLM13 = assay: 7-day proliferation assay (WST-8), cell growth inhibition; type: cell-based; details: Homo sapiens, MOLM-13, 168 h, MOLM13 cells, 7 days
Procedure, shortened: (§1)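 Cells seeded at 2,000-3,000/well were exposed to serially diluted compound for 7 days at 37° C., 5% CO2. Viability was read by WST-8 absorbance at 450 nm after 1-2 h color development; readings normalized to DMSO-treated cells, IC50 by four-parameter nonlinear regression.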

MV4-11 = assay: as above; type: cell-based; details: Homo sapiens, MV4-11, 168 h, MV4-11 cells, 7 days
Procedure, shortened: as §1

SMILES	IC50 (menin protein)	IC50 (MOLM13)	IC50 (MV4-11)
C=CC(=O)N1CCCC[C@@H](S(=O)(=O)c2ccc(N3CC(C)(CN4CCC([C@@](CN5CCC5)(c5cccc(F)c5)[C@H]5CCC[C@@H]5NC(=O)OC)CC4)C3)c(F)c2)C1 [compound 225]	7 nM	< 100 nM	< 100 nM
C=C(CN1CCCCC1)C(=O)N1CC(S(=O)(=O)c2ccc(N3CC(F)(CN4CCC([C@@](CN5CCC5)(c5cccc(F)c5)[C@H]5CCC[C@@H]5NC(=O)OC)CC4)C3)cc2)C1 [Cpd. No. 18, methyl ((1S,2R)-2-((S)-2-(azetidin-1-yl)-1-(1-((3-fluoro-1-(4-((1-(2-(piperidin-1-ylmethyl)acryloyl)azetidin-3-yl)sulfonyl)phenyl)azetidin-3-yl)methyl)piperidin-4-yl)-1-(3-fluorophenyl)ethyl)cyclopentyl)carbamate]	2 nM	< 100 nM	< 10 nM
COC(=O)N[C@H]1CCC[C@@H]1[C@](CN1CCC1)(c1cccc(F)c1)C1CCN(CC2CN(c3ccc(S(=O)(=O)C4CN(C(=O)/C=C/CN5CC(F)(F)C5)C4)cc3)C2)CC1 [Cpd. No. 175]	1 nM	< 10 nM	< 10 nM
C=CC(=O)N1CCCC[C@@H](S(=O)(=O)c2ccc(N3CC(C)(CN4CCC([C@@](CN5CCC5)(c5cccc(F)c5)[C@H]5CCC[C@@H]5NC(=O)OC)CC4)C3)cc2)C1 [compound 222]	4 nM	< 50 nM	< 50 nM
COC(=O)N[C@H]1CCC[C@@H]1[C@](CN1CCCC1)(c1cccc(F)c1)C1CCN(CC2CN(c3ccc(S(=O)(=O)C4CN(C(=O)/C=C/CN(C)C)C4)cc3)C2)CC1 [Cpd. No. 3]	2 nM	< 50 nM	< 50 nM
C=CC(=O)N1CCOC[C@@H](S(=O)(=O)c2ccc(N3CC(F)(CN4CCC([C@@](CN5CCC5)(c5cccc(F)c5)[C@H]5CCC[C@@H]5NC(=O)OC)CC4)C3)c(F)c2)C1 [compound 216]	2 nM	< 100 nM	< 50 nM
C=CC(=O)N1CCCCC(S(=O)(=O)c2ccc(N3CC(F)(CN4CCC([C@@](CN5CCC5)(c5cccc(F)c5)[C@H]5CCC[C@@H]5NC(=O)OC)CC4)C3)cc2)C1 (stereo partly shown) [compound 215]	1 nM	< 10 nM	< 10 nM
C=C(CN(C)C)C(=O)N1CC(S(=O)(=O)c2ccc(N3CC(F)(CN4CCC([C@@](CN5CCC5)(c5cccc(F)c5)[C@H]5CCC[C@@H]5NC(=O)OC)CC4)C3)cc2)C1 [Cpd. No. 13, methyl ((1S,2R)-2-((S)-2-(azetidin-1-yl)-1-(1-((1-(4-((1-(2-((dimethylamino)methyl)acryloyl)azetidin-3-yl)sulfonyl)phenyl)-3-fluoroazetidin-3-yl)methyl)piperidin-4-yl)-1-(3-fluorophenyl)ethyl)cyclopentyl)carbamate]	1 nM	< 100 nM	< 10 nM
C=CC(=O)N1CCCC[C@@H](S(=O)(=O)c2ccc(N3CC(O)(CN4CCC([C@@](CN5CCC5)(c5cccc(F)c5)[C@H]5CCC[C@@H]5NC(=O)OC)CC4)C3)cc2)C1 [compound 228]	7 nM	< 500 nM	< 50 nM
COC(=O)N[C@H]1CCC[C@@H]1[C@](CNC(C)=O)(c1cccc(F)c1)C1CCN(CC2CN(c3ccc(S(=O)(=O)C4CN(C(=O)/C=C/CN5CCCCC5)C4)c(CN4CC(F)C4)c3)C2)CC1 [compound 131]	2 nM	< 10 nM	< 10 nM
CC#CC(=O)N1CCCC[C@@H](S(=O)(=O)c2ccc(N3CC(CN4CCC([C@@](CN5CCC5)(c5cccc(F)c5)[C@H]5CCC[C@@H]5NC(=O)OC)CC4)(OC)C3)c(F)c2)C1 [compound 232]	3 nM	< 500 nM	< 100 nM
C=CC(=O)N1CCc2ccc(S(=O)(=O)c3ccc(N4CC(F)(CN5CCC([C@@](CN6CCC6)(c6cccc(F)c6)[C@H]6CCC[C@@H]6NC(=O)OC)CC5)C4)c(F)c3)cc21 [compound 126]		< 1000 nM	< 500 nM
C=CC(=O)Nc1cc(N(C)CCN(C)C)cc(S(=O)(=O)c2ccc(N3CC(CN4CCC([C@@](CN5CCC5)(c5cccc(F)c5)[C@H]5CCC[C@@H]5NC(=O)OC)CC4)C3)cc2)c1 [compound 75]		< 50 nM	< 10 nM
C=CC(=O)N1CCCC(S(=O)(=O)c2ccc(N3CC(F)(CN4CCC([C@@](CN5CCC5)(c5cccc(F)c5)[C@H]5CCC[C@@H]5NC(=O)OC)CC4)C3)cc2)C1 (stereo partly shown) [compound 112]		< 50 nM	< 50 nM
C=CC(=O)N1CC(S(=O)(=O)c2ccc(N3CC(CN4CCC([C@@](CNC(C)=O)(c5cccc(F)c5)[C@H]5CCC[C@@H]5NC(=O)OC)CC4)C3)cc2CN2CC(F)C2)C1 [compound 176]		< 50 nM	< 50 nM
C=CC(=O)N1CCc2c1cccc2S(=O)(=O)c1ccc(N2CC(F)(CN3CCC([C@@](CN4CCC4)(c4cccc(F)c4)[C@H]4CCC[C@@H]4NC(=O)OC)CC3)C2)c(F)c1 [compound 127]		< 500 nM	< 100 nM
C=CC(=O)Nc1cccc(S(=O)(=O)c2ccc(N3CC(F)(CN4CCC([C@@](CN5CCC5)(c5cccc(F)c5)[C@H]5CCC[C@@H]5NC(=O)OC)CC4)C3)cc2)n1 [compound 85]		< 500 nM	< 500 nM
C=CC(=O)Nc1cc(S(=O)(=O)c2ccc(N3CC(F)(CN4CCC([C@@](CN5CCC5)(c5cccc(F)c5)[C@H]5CCC[C@@H]5NC(=O)OC)CC4)C3)cc2)ccn1 [compound 82]		< 100 nM	< 10 nM
C=CC(=O)Nc1cncc(S(=O)(=O)c2ccc(N3CC(F)(CN4CCC([C@@](CN5CCC5)(c5cccc(F)c5)[C@H]5CCC[C@@H]5NC(=O)OC)CC4)C3)cc2)c1 [compound 83]		< 100 nM	< 10 nM
C=CC(=O)N1CCC[C@@H](S(=O)(=O)c2ccc(N3CC(CN4CCC([C@@](CNC(C)=O)(c5cccc(F)c5)[C@H]5CCC[C@@H]5NC(=O)OC)CC4)C3)cc2)C1 [compound 199]		< 50 nM	< 50 nM
C=CC(=O)N1CCOC[C@@H](S(=O)(=O)c2ccc(N3CC(C)(CN4CCC([C@@](CNC(=O)OC)(c5cccc(F)c5)[C@H]5CCC[C@@H]5NC(=O)OC)CC4)C3)c(F)c2)C1 [compound 181]		< 500 nM	< 50 nM
CC#CC(=O)N1CC(S(=O)(=O)c2ccc(N3CC(F)(CN4CCC([C@@](CN5CCC5)(c5cccc(F)c5)[C@H]5CCC[C@@H]5NC(=O)OC)CC4)C3)c(F)c2)C1 [compound 102]		< 50 nM	< 10 nM
C=CC(=O)N1CCOC[C@@H](S(=O)(=O)c2ccc(N3CC(CN4CCC([C@@](CNC(=O)OC)(c5cccc(F)c5)[C@H]5CCC[C@@H]5NC(=O)OC)CC4)C3)c(F)c2)C1 [compound 179]		< 100 nM	< 50 nM
COC(=O)N[C@H]1CCC[C@@H]1[C@](CN1CCC1)(c1cccc(F)c1)C1CCN(CC2(F)CN(c3ccc(S(=O)(=O)C4CN(C(=O)/C=C/CN5CCCCC5)C4)cc3)C2)CC1 [compound 95]		< 50 nM	< 10 nM
C=CC(=O)N1CCOCC(S(=O)(=O)c2ccc(N3CC(F)(CN4CCC([C@@](CN5CCC5)(c5cccc(F)c5)[C@H]5CCC[C@@H]5NC(=O)OC)CC4)C3)cc2)C1 (stereo partly shown) [compound 125]		< 50 nM	< 50 nM
